{"source": "patent US11970474B2", "about": "“Substituted benzodiazoles and use thereof in therapy” (THOMAS HELLEDAYS STIFTELSE FÖR MEDICINSK FORSKNING, priority 2018, dated 2024)", "key": {"[1]": {"biological_target": "OGG1 (Homo sapiens (Human), UniProt O15527)", "sequence (O15527 whole entry)": "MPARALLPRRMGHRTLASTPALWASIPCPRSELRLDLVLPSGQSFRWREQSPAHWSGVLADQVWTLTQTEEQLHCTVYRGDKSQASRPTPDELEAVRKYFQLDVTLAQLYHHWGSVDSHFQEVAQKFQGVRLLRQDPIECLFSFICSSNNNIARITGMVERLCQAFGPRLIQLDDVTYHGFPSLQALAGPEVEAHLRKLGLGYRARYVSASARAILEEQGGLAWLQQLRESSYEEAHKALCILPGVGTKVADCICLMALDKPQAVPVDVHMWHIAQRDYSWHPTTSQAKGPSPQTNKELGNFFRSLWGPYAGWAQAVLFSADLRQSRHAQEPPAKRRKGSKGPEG", "assay": "In vitro OGG1 activity assay", "type": "biochemical", "conditions": "800 pM OGG1 enzyme, 2 nM human APEX1, 10 nM 8-oxoA:C substrate", "procedure,_shortened": "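Fluorescence-release assay on a duplex oligonucleotide carrying an OGG1 substrate base beside a fluorophore, quenched from the complementary strand. Excess APEX1 cleaves the abasic site left by base excision, melting the duplex and unquenching the fluorophore. Compounds in DMSO were dispensed before enzyme and substrate, and fluorescein signal was read.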"}, "[2]": {"system": "LCL#1", "assay": "Cell viability assay (resazurin)", "type": "cell-based", "conditions": "120 h, Normal, Epstein-Barr-virus-transformed lymphoblastoid cell lines, five day incubation", "description": "(§1) A dilution series of compound or vehicle are transferred to 96-well plates. Cells are seeded into the plate (500-10,000 cells/well) in suitable media and incubated for five days in 5% CO2 at 37° C. Thereafter, resazurin (diluted in suitable medium or PBS) are added to a final concentration 10 μg/ml resazurin at 37° C. for 2-4 hours before measuring the fluorescence (Ex544/Em590), essentially as described (Riss, Terry L. et al., “Cell Viability Assays.” In Assay Guidance Manual, ed. G. Sitta Sittampalam, et al. Bethesda (Md.): Eli Lilly & Company and the National Center for Advancing Translational Sciences (2004) http://www.ncbi.nlm.nih.gov/books/NBK144065/).\n(§2) The compounds to be tested are nano-dispensed in duplicate in 11 concentrations, directly in 384-well cell plates, with a final DMSO concentration<1%. Cells are seeded in cell plates, pre-dispensed with compounds (200-2500 cells/well in 50 μl). After three or five days culture in 5% CO2, 37° C., resazurin diluted in PBS is added, 10 μl/well, to a final concentration of 10 μg/ml and cells are incubated 2-4 hours before measuring fluorescence (Ex544/Em590), as described (ibid.). Results obtained for selected example compounds described herein on cancer- and non-transformed cell lines are provided in the table below (Table 3) and summarized in FIG. 1. Where indicated, combination indexes was measured with CompuSyn software (www.compusyn.com) by the method of Chou-Talalay (Chou, Ting-Chao., Cancer Research, 70(2), 440-46 (2010))."}, "[3]": {"system": "U2OS", "assay": "Cell viability assay (resazurin)", "type": "cell-based", "conditions": "Homo sapiens, 120 h, Cancer, Osteosarcoma, five day incubation", "description": "as §1, §2"}, "[4]": {"system": "Daudi", "assay": "Cell viability assay (resazurin)", "type": "cell-based", "conditions": "Homo sapiens, 120 h, Cancer, Burkitt's Lymphoma, five day incubation", "description": "as §1, §2"}, "[5]": {"system": "Raji", "assay": "Cell viability assay (resazurin)", "type": "cell-based", "conditions": "Homo sapiens, 120 h, Cancer, Burkitt's Lymphoma, five day incubation", "description": "as §1, §2"}, "[6]": {"system": "M059K", "assay": "Cell viability assay (resazurin)", "type": "cell-based", "conditions": "120 h, Cancer, Malignant Glioblastoma, five day incubation", "description": "as §1, §2"}, "[7]": {"system": "MV4-11", "assay": "Cell viability assay (resazurin)", "type": "cell-based", "conditions": "Homo sapiens, 120 h, Cancer, acute monocytic leukemia, five day incubation", "description": "as §1, §2"}, "[8]": {"system": "CCL2", "assay": "Mouse CCL2 assay in MLE12 cells", "type": "cell-based", "conditions": "Mus musculus, MLE12, 30 h, MLE12 cells; TNF-α 20 ng/ml; supernatant after 30 hours; HTRF; read-out: CCL2 (EC50)", "procedure,_shortened": "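MLE12 mouse lung epithelial cells (7500/well, DMEM/F12 with 5% FBS) preincubated 1 h with compounds (6-point dose-response, duplicate), then stimulated with TNF-α (final 20 ng/ml) for 30 h at 37 °C. Secreted CCL2 measured by HTRF sandwich immunoassay (Ex330/Em620, 665 nm) against standard curve; IC50 from delta ratios.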"}}, "data": [{"compound": "O=C(Nc1ccc(I)cc1)N1CCC(n2c(=O)[nH]c3c(Br)cccc32)CC1", "note": "[Example 13, 4-(4-Bromo-2-oxo-2,3-dihydro-1H-1,3-benzodiazol-1-yl)-N-(4-iodophenyl)piperidine-1-carboxamide]", "values": [{"measurement": "IC50", "setting": "[1]", "result": 0.359, "unit": "µM"}, {"measurement": "EC50", "setting": "[2]", "result": 33, "unit": "µM"}, {"measurement": "EC50", "setting": "[3]", "result": 20, "unit": "µM"}, {"measurement": "EC50", "setting": "[4]", "result": 13, "unit": "µM"}, {"measurement": "EC50", "setting": "[5]", "result": 25, "unit": "µM"}, {"measurement": "EC50", "setting": "[6]", "result": 20, "unit": "µM"}, {"measurement": "EC50", "setting": "[7]", "result": 9.4, "unit": "µM"}, {"measurement": "EC50", "setting": "[8]", "result": 18.8, "unit": "µM"}]}, {"compound": "O=C(Nc1ccc(Cl)c(Cl)c1)N1CCC(n2c(=O)[nH]c3c(-c4ccc(CO)nc4)cccc32)CC1", "note": "[Example 28, N-(3,4-dichlorophenyl)-4-{4-[6-(hydroxymethyl)pyridin-3-yl]-2-oxo-2,3-dihydro-1H-1,3-benzodiazol-1-yl}piperidine-1-carboxamide]", "values": [{"measurement": "IC50", "setting": "[1]", "result": 0.766, "unit": "µM"}, {"measurement": "EC50", "setting": "[2]", "result": 34, "unit": "µM"}, {"measurement": "EC50", "setting": "[3]", "result": 16, "unit": "µM"}, {"measurement": "EC50", "setting": "[4]", "result": 10, "unit": "µM"}, {"measurement": "EC50", "setting": "[5]", "result": 20, "unit": "µM"}, {"measurement": "EC50", "setting": "[6]", "result": 19, "unit": "µM"}, {"measurement": "EC50", "setting": "[7]", "result": 6.5, "unit": "µM"}, {"measurement": "EC50", "setting": "[8]", "result": 17, "unit": "µM"}]}, {"compound": "Cc1cc(NC(=O)N2CCC(n3c(=O)[nH]c4c(Br)cccc43)CC2)ccc1I", "note": "[Example 50, 4-(4-Bromo-2-oxo-2,3-dihydro-1H-1,3-benzodiazol-1-yl)-N-(4-iodo-3-methylphenyl)piperidine-1-carboxamide]", "values": [{"measurement": "IC50", "setting": "[1]", "result": 0.149, "unit": "µM"}, {"measurement": "EC50", "setting": "[2]", "result": 40, "unit": "µM"}, {"measurement": "EC50", "setting": "[3]", "result": 25, "unit": "µM"}, {"measurement": "EC50", "setting": "[4]", "result": 12, "unit": "µM"}, {"measurement": "EC50", "setting": "[5]", "result": 23, "unit": "µM"}, {"measurement": "EC50", "setting": "[6]", "result": 27, "unit": "µM"}, {"measurement": "EC50", "setting": "[7]", "result": 9.6, "unit": "µM"}, {"measurement": "EC50", "setting": "[8]", "result": 15.4, "unit": "µM"}]}]}
